# Data: ChEMBL document CHEMBL1150682, “Modiolides A and B, two new 10-membered macrolides from a marine-derived fungus” (2003)
# Experiments:
# [1] = test system: Micrococcus luteus; assay: Antimicrobial activity against Micrococcus luteus; format: functional
# [2] = test system: Neurospora crassa; assay: Antimicrobial activity against Neurospora crassa; format: functional
MIC [1] [mg/L],MIC [2] [mg/L],Compound
16.7,33.3,C[C@@H]1CC/C=C/[C@@H](O)/C=C\C(=O)O1 [MODIOLIDE B]
16.7,33.3,C[C@@H]1C[C@H](O)/C=C/[C@@H](O)/C=C\C(=O)O1 [MODIOLIDE A]
